Measurements published in patent publication US5668159A, “1,3,4-thiadiazoles and 1,3,4-oxadiazoles as IIb/IIIa antagonists” (The DuPont Merck Pharmaceutical Company, priority 1996, dated 1997).
Counter-ions that a name gives are not always drawn. Like-named read-outs stand apart in the source and are kept apart here.

System: platelet aggregation (platelet rich plasma (PRP))
Experiment: Platelet Aggregation Assay (inhibition of agonist-induced platelet aggregation in platelet rich plasma)
Assay type: cell-based
Details: human PRP
Method: Platelet Aggregation Assay: Venous blood was obtained from the arm of a healthy human donor who was drug-free and aspirin-free for at least two weeks prior to blood collection. Blood was collected into 10 mL citrated Vacutainer tubes. The blood was centrifuged for 15 minutes at 150× g at room temperature, and platelet-rich plasma (PRP) was removed. The remaining blood was centrifuged for 15 minutes at 1500× g at room temperature, and platelet-poor plasma (PPP) was removed. Samples were assayed on a aggregometer (PAP-4 Platelet Aggregation Profiler), using PPP as the blank (100% transmittance). 200 μL of PRP was added to each micro test tube, and transmittance was set to 0%. 20 μL of various agonists (ADP, collagen, arachidonate, epinephrine, thrombin) were added to each tube, and the aggregation profiles were plotted (% transmittance versus time). The results are expressed as % inhibition of agonist-inducedplatelet aggregation. For the IC50 evaluation, the test compounds were added at various concentrations prior to the activation of the platelets.
Ester prodrugs were preincubated (10^-3 M F.C.) with 100 IU/mL Porcine liver esterase (Sigma Chemical Co., St. Louis, Mo., #E-3128) for 2 hours at 37° C. Aliquots are then diluted in 0.1M Tris, p H 7.4, to the desired concentrations. Aliquots of 20 μl of the esterase pretreated prodrugs are added to 200 μl of human platelet rich plasma. Samples were placed in platelet profiler (aggregometer) for 8 minutes at 37° C., followed by the addition of 100 μM Adenosine Diphosphate, (Sigma Chemical Co., St. Louis, Mo., #A-6521), to induce platelet aggregation. Platelet aggregation was allowed to proceed for 5 minutes. Percent inhibition is calculated using percent aggregation in the presence of the test compound divided by percent aggregation of control, times 100. This value is subtracted from 100, yielding percent inhibition. Calculation of IC50 is performed on a Texas Instruments TI59 with an IC50 program.
Table A below sets forth the antiplatelet activity of representative compounds of the present invention. The indicated compounds were tested for their ability to inhibit platelet aggregation (using platelet rich plasma (PRP)). The IC50 value (the concentration of antagonist which inhibits platelet aggregation by 50% relative to a control lacking the antagonist) is shown. In Table A the IC50 values are expressed as: +++=IC50 of <10 μM; ++=IC50 of […]; +=IC50 of 50-100 μM (μM=micromolar).

Structure (SMILES) | IC50 (without esterase, read-out: Platelet Aggregation Assay IC50 (without esterase)) [µM] | IC50 (with esterase, ester prodrugs preincubated with 100 IU/mL porcine liver esterase 2 hours at 37° C., 100 μM ADP, read-out: Platelet Aggregation Assay IC50 (with esterase)) [µM]
CCCCOC(=O)N[C@@H](CNC(=O)CSc1nnc(-c2ccc(C(=N)N)cc2)s1)C(=O)O [Example 193, N^3-[2-{2-(4-Amidinophenyl)-1,3,4-thiadiazol-5-ylthio}acetyl]-N^2-(n-butoxycarbonyl)-2,3-(S)-diaminopropionic acid HCl salt] | < 10 | 
COC(=O)[C@H](CNC(=O)Cc1nnc(-c2ccc(C(N)=O)cc2)s1)NS(=O)(=O)c1cccc(C)c1 [Example 170, Methyl N^3-[2-{2-(4-amidophenyl)-1,3,4-thiadiazol-5-yl}-acetyl]-N^2-(3-methylphenylsulfonyl)-2,3-(S)-diaminopropionate] |  | 50 to 100
